Test results reported in patent US9833497B2, “Human originated EGF domain proteins and use of the same” (CHENGDU SOURCEBIO LIMITED-LIABILITY COMPANY, priority 2013, dated 2017).

How the values were obtained:
Assay type in all cases: cell-based
[1] = system: Aeromonas hydrophila; assay: MIC against Gram-negative bacteria: Aeromonas hydrophila; conditions: 96-well plate, 5×10^5 CFU/mL, 37° C., 10 h
Procedure, shortened: (§1)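 The recombinant human-originated EGF domain proteins were serially diluted two-fold against bacteria at 5×10^5 CFU/mL in LB medium. After shaken incubation at 37° C, the lowest concentration with no bacterial growth was recorded as the MIC.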

[2] = system: Klebsiella pneumonia; assay: MIC against Gram-negative bacteria: Klebsiella pneumonia; conditions: 96-well plate, 5×10^5 CFU/mL, 37° C., 10 h
Procedure, shortened: as §1

[3] = system: Serratia marcescens; assay: MIC against Gram-negative bacteria: Serratia marcescens; conditions: 96-well plate, 5×10^5 CFU/mL, 37° C., 10 h
Procedure, shortened: as §1

[4] = system: Proteus vulgaris; assay: MIC against Gram-negative bacteria: Proteus vulgaris; conditions: 96-well plate, 5×10^5 CFU/mL, 37° C., 10 h
Procedure, shortened: as §1

[5] = system: Moraxella catarrhalis; assay: MIC against Gram-negative bacteria: Moraxella catarrhalis; conditions: 96-well plate, 5×10^5 CFU/mL, 37° C., 10 h
Procedure, shortened: as §1

[6] = system: Proteus mirabilis; assay: MIC against Gram-negative bacteria: Proteus mirabilis; conditions: 96-well plate, 5×10^5 CFU/mL, 37° C., 10 h
Procedure, shortened: as §1

[7] = system: E. coli DH5α; assay: Antibacterial activity: MIC and growth curve against E. coli DH5α in 96-well plate; conditions: minimal inhibitory concentration against E. coli DH5α; 96-well plate, 5×10^5 CFU/mL, 37° C., judged after 8 h
Procedure, shortened: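 Log-phase DH5α (OD600 about 0.5, 37° C, 185 rpm in LB) was pelleted, resuspended in fresh LB and seeded at 5×10^5 CFU/mL with recombinant protein at 50, 25 and 12.5 μg/mL (two-fold series), in triplicate. Plates were shaken at 175 rpm, 37° C, and OD600 was read every 30 min. MIC was the lowest concentration with no growth.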

[8] = system: Pseudomonas aeruginosa; assay: MIC against Gram-negative bacteria: Pseudomonas aeruginosa; conditions: 96-well plate, 5×10^5 CFU/mL, 37° C., 10 h
Procedure, shortened: as §1

[9] = system: Enterobacter cloacae; assay: MIC against Gram-negative bacteria: Enterobacter cloacae; conditions: 96-well plate, 5×10^5 CFU/mL, 37° C., 10 h
Procedure, shortened: as §1

[10] = system: Citrobacter diversus; assay: MIC against Gram-negative bacteria: Citrobacter diversus; conditions: 96-well plate, 5×10^5 CFU/mL, 37° C., 10 h
Procedure, shortened: as §1

[11] = system: E. coli BL21; assay: MIC against Gram-negative bacteria: E. coli BL21; conditions: 96-well plate, 5×10^5 CFU/mL, 37° C., 10 h
Procedure, shortened: as §1

Substance | MIC A. hydrophila [1] | MIC K. pneumonia [2] | MIC S. marcescens [3] | MIC P. vulgaris [4] | MIC M. catarrhalis [5] | MIC P. mirabilis [6] | MIC [7] | MIC P. aeruginosa [8] | MIC E. cloacae [9] | MIC C. diversus [10] | MIC E. coli BL21 [11]
PRT698 (DVDECARSPPPCTYGRCENTEGSFQCVCPMGFQPNTAGSECE; listed as Homo sapiens) | 12.5 µg/mL | 50 µg/mL | 12.5 µg/mL | 25 µg/mL | 50 µg/mL | 25 µg/mL | 50 µg/mL | 12.5 µg/mL | 25 µg/mL | 25 µg/mL | 25 µg/mL
PRT699 (DVDECSSGAPPCGPHGHCTNTEGSFRCSCAPGYRAPSGRPGPCA; listed as Homo sapiens) | 12.5 µg/mL | 25 µg/mL | 50 µg/mL | 25 µg/mL | 25 µg/mL | 12.5 µg/mL | 50 µg/mL | 12.5 µg/mL | 50 µg/mL | 50 µg/mL | 25 µg/mL
PRT703 (NCSRLGCQHHCVPTLDGPTCYCNSSFQLQADGKTCK; listed as Homo sapiens) | 25 µg/mL | 25 µg/mL | 50 µg/mL | 12.5 µg/mL | 50 µg/mL | 25 µg/mL | 25 µg/mL | 12.5 µg/mL | 50 µg/mL | 12.5 µg/mL | 50 µg/mL
PRT704 (LLSNCQQLNCQYKCTMVRNSTRCYCEDGFEITEDGRSCK; listed as Homo sapiens) | 50 µg/mL | 25 µg/mL | 12.5 µg/mL | 25 µg/mL | 12.5 µg/mL | 50 µg/mL | 50 µg/mL | 50 µg/mL | 50 µg/mL | 25 µg/mL | 25 µg/mL
PRT705 (LDDSCKLTCENGGRCILNEKGDLRCHCWPSYSGE; listed as Homo sapiens) | 25 µg/mL | 50 µg/mL | 50 µg/mL | 12.5 µg/mL | 25 µg/mL | 50 µg/mL | 25 µg/mL | 12.5 µg/mL | 12.5 µg/mL | 100 µg/mL | 50 µg/mL
PRT706 (EVNHCSNYCQNGGTCVPSVLGRPTCSCALGFTGPNCG; listed as Homo sapiens) | 50 µg/mL | 12.5 µg/mL | 12.5 µg/mL | 50 µg/mL | 50 µg/mL | 12.5 µg/mL | 25 µg/mL | 12.5 µg/mL | 25 µg/mL | 12.5 µg/mL | 50 µg/mL
PRT707 (GKTVCEDFCQNGGTCIVTAGNQPYCHCQPEYTGDRCQ; listed as Homo sapiens) | 25 µg/mL | 12.5 µg/mL | 12.5 µg/mL | 25 µg/mL | 12.5 µg/mL | 12.5 µg/mL | 50 µg/mL | 50 µg/mL | 12.5 µg/mL | 12.5 µg/mL | 25 µg/mL
PRT708 (QYYVCHHYCVNSESCTIGDDGSVECVCPTRYEGPKCE; listed as Homo sapiens) | 12.5 µg/mL | 25 µg/mL | 50 µg/mL | 12.5 µg/mL | 12.5 µg/mL | 50 µg/mL | 50 µg/mL | 50 µg/mL | 50 µg/mL | 50 µg/mL | 25 µg/mL
PRT709 (SCQLCDGYCYNGGTCQLDPETNVPVCLCSTNWSGTQCE; listed as Homo sapiens) | 50 µg/mL | 25 µg/mL | 50 µg/mL | 12.5 µg/mL | 50 µg/mL | 25 µg/mL | 50 µg/mL | 50 µg/mL | 12.5 µg/mL | 12.5 µg/mL | 12.5 µg/mL
